Results: ChEMBL document CHEMBL1201862, “PubChem BioAssay data set” (2004)
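Method: 48-hour compound exposure of cells in 96-well plates, five concentrations, linear interpolation of endpoints. At the GI50, growth is halved.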 The source made the active and inactive calls. Cut-off read from the data, not from the text of the source: active = GI50 up to about 1.1 µM and inactive = higher.

How the values were obtained:
Assay in all cases: DTP human tumour cell line panel, 48 h
SF-295 = system: SF-295
UACC-62 = system: UACC-62
NCI-H23 = system: NCI-H23
K562 = system: K562
SF-268 = system: SF-268
SN12C = system: SN12C
COLO 205 = system: COLO 205
OVCAR-8 = system: OVCAR-8
HL-60 = system: HL-60
OVCAR-4 = system: OVCAR-4
HCT-116 = system: HCT-116
SNB-19 = system: SNB-19
A549 = system: A549
CCRF-CEM = system: CCRF-CEM
LOX IMVI = system: LOX IMVI
SNB-75 = system: SNB-75
UO-31 = system: UO-31
HT-29 = system: HT-29
HOP-92 = system: HOP-92
KM12 = system: KM12

Row | Structure (SMILES) | GI50 (SF-295) | GI50 (UACC-62) | GI50 (NCI-H23) | GI50 (K562) | GI50 (SF-268) | GI50 (SN12C) | GI50 (COLO 205) | GI50 (OVCAR-8) | GI50 (HL-60) | GI50 (OVCAR-4) | GI50 (HCT-116) | GI50 (SNB-19) | GI50 (A549) | GI50 (CCRF-CEM) | GI50 (LOX IMVI) | GI50 (SNB-75) | GI50 (UO-31) | GI50 (HT-29) | GI50 (HOP-92) | GI50 (KM12)
1 | O=C(CCc1ccc(O)cc1)NCCc1cccc(O)c1 | > 50 µM (inactive) | > 50 µM (inactive) | > 50 µM (inactive) | > 50 µM (inactive) | > 50 µM (inactive) | > 50 µM (inactive) | > 50 µM (inactive) | > 50 µM (inactive) | > 50 µM (inactive) | > 50 µM (inactive) | > 50 µM (inactive) | > 50 µM (inactive) | > 50 µM (inactive) | > 50 µM (inactive) | > 50 µM (inactive) | 0.005 µM (active) | > 50 µM (inactive) | > 50 µM (inactive) | > 50 µM (inactive) | > 50 µM (inactive)
2 | Cc1c2ccncc2c(C)c2c1[nH]c1ccc(OCCN(C)C)cc12 | 0.125 µM (active) | 0.729 µM (active) | 0.416 µM (active) | 0.0614 µM (active) | 0.151 µM (active) | 0.309 µM (active) | 0.357 µM (active) | 0.112 µM (active) | 0.136 µM (active) | 0.135 µM (active) | 0.0455 µM (active) | 0.256 µM (active) | 0.198 µM (active) | 0.024 µM (active) | 0.063 µM (active) | 0.47 µM (active) | 0.641 µM (active) | 0.171 µM (active) | 0.583 µM (active) | 0.105 µM (active)
3 | O=C(O)/C(O)=C1/C=C(c2ccccc2)c2ccccc21 | 18.8 µM (inactive) | 16.1 µM (inactive) |  | 26.1 µM (inactive) | 22 µM (inactive) | 23.8 µM (inactive) | 18 µM (inactive) | 23.9 µM (inactive) | 19.9 µM (inactive) | 26.1 µM (inactive) | 19.6 µM (inactive) | 29.2 µM (inactive) | 26.2 µM (inactive) | 18.7 µM (inactive) | 17.9 µM (inactive) | 22 µM (inactive) | 19.3 µM (inactive) | 33.1 µM (inactive) | 18.9 µM (inactive) | 17.8 µM (inactive)
4 | O=C(O)C1CC2C=CCC(C2)C1 (stereo unspecified) | > 100 µM (inactive) | > 100 µM (inactive) | > 100 µM (inactive) | > 100 µM (inactive) | > 100 µM (inactive) |  | > 100 µM (inactive) | > 100 µM (inactive) | > 100 µM (inactive) | > 100 µM (inactive) | > 100 µM (inactive) | > 100 µM (inactive) | > 100 µM (inactive) | > 100 µM (inactive) | > 100 µM (inactive) | > 100 µM (inactive) | > 100 µM (inactive) | > 100 µM (inactive) | > 100 µM (inactive) | > 100 µM (inactive)
5 | CC1SC2=NC3=C(c4ccccc4C3=O)C(c3ccccc3Cl)N2C1=O (stereo unspecified) | > 100 µM (inactive) | 80.2 µM (inactive) | 85.7 µM (inactive) | 90.2 µM (inactive) | > 100 µM (inactive) | > 100 µM (inactive) | > 100 µM (inactive) | > 100 µM (inactive) | > 100 µM (inactive) | 86.1 µM (inactive) | > 100 µM (inactive) | > 100 µM (inactive) | > 100 µM (inactive) | 70.3 µM (inactive) | > 100 µM (inactive) | 63 µM (inactive) | > 100 µM (inactive) | > 100 µM (inactive) | 78.2 µM (inactive) | > 100 µM (inactive)
6 | C[Si](C)(N[Si](C)(C)OCCc1ccccc1)OCCc1ccccc1 | > 100 µM (inactive) | > 100 µM (inactive) | > 100 µM (inactive) |  |  | > 100 µM (inactive) |  | > 100 µM (inactive) | > 100 µM (inactive) | > 100 µM (inactive) | > 100 µM (inactive) | > 100 µM (inactive) |  | > 100 µM (inactive) | > 100 µM (inactive) | > 100 µM (inactive) | > 100 µM (inactive) | > 100 µM (inactive) | > 100 µM (inactive) | > 100 µM (inactive)
7 | COc1ccc(-c2cc(N3CCN(c4ccccc4)CC3)c(C#N)c(=O)o2)cc1 | 14.3 µM (inactive) |  | 47.6 µM (inactive) | 61 µM (inactive) | 8.55 µM (inactive) | 30.2 µM (inactive) | > 100 µM (inactive) | 20.7 µM (inactive) | 60.7 µM (inactive) | 4.59 µM (inactive) | 62.8 µM (inactive) | 8.49 µM (inactive) | 21.2 µM (inactive) | 98.4 µM (inactive) | 30.5 µM (inactive) | 7.41 µM (inactive) | 13.2 µM (inactive) | > 100 µM (inactive) | 55 µM (inactive) | > 100 µM (inactive)
8 | O=C1CCCC1C(O)(C(F)(F)Cl)C(F)(F)Cl (stereo unspecified) | > 10 µM (inactive) | > 10 µM (inactive) | > 10 µM (inactive) | > 10 µM (inactive) | > 10 µM (inactive) | > 10 µM (inactive) | > 10 µM (inactive) | > 10 µM (inactive) | > 10 µM (inactive) | > 10 µM (inactive) | > 10 µM (inactive) | > 10 µM (inactive) | > 10 µM (inactive) | > 10 µM (inactive) | > 10 µM (inactive) | > 10 µM (inactive) |  | > 10 µM (inactive) | > 10 µM (inactive) | > 10 µM (inactive)
9 | CCN1CCC(O)(c2ccc(O)cc2)C(C(=O)c2ccc(O)cc2)C1 (stereo unspecified) | > 100 µM (inactive) | 16.4 µM (inactive) | 20.3 µM (inactive) | 12 µM (inactive) | 39.2 µM (inactive) | 22.3 µM (inactive) | 4.45 µM (inactive) | 40.6 µM (inactive) | 31.7 µM (inactive) | 27.7 µM (inactive) | 20.3 µM (inactive) | > 100 µM (inactive) |  | 11.5 µM (inactive) | 12.5 µM (inactive) | 11.2 µM (inactive) | 21.6 µM (inactive) | 25.8 µM (inactive) | 19.7 µM (inactive) | 22.2 µM (inactive)
10 | CSc1nc2c(nc(N)n2C2OCC(O)C(O)C2O)c(=O)[nH]1 (stereo unspecified) | > 100 µM (inactive) | > 100 µM (inactive) | > 100 µM (inactive) | > 100 µM (inactive) | > 100 µM (inactive) | > 100 µM (inactive) | > 100 µM (inactive) | > 100 µM (inactive) | > 100 µM (inactive) | > 100 µM (inactive) | > 100 µM (inactive) | > 100 µM (inactive) | > 100 µM (inactive) | > 100 µM (inactive) | > 100 µM (inactive) | > 100 µM (inactive) | > 100 µM (inactive) | > 100 µM (inactive) | > 100 µM (inactive) | > 100 µM (inactive)
11 | N#CC(C#N)=C1CCC2C(=C(C#N)C#N)CCC12 (stereo unspecified) | > 100 µM (inactive) | > 100 µM (inactive) | > 100 µM (inactive) | > 100 µM (inactive) | > 100 µM (inactive) | > 100 µM (inactive) | > 100 µM (inactive) | > 100 µM (inactive) | > 100 µM (inactive) | > 100 µM (inactive) | > 100 µM (inactive) | > 100 µM (inactive) | > 100 µM (inactive) | > 100 µM (inactive) | > 100 µM (inactive) | > 100 µM (inactive) | > 100 µM (inactive) | > 100 µM (inactive) | > 100 µM (inactive) | > 100 µM (inactive)
12 | C=C=C(Sc1ccccc1)C(C)(C)OC(C)=O | 18.2 µM (inactive) | 14.3 µM (inactive) | 17.2 µM (inactive) | 22.1 µM (inactive) | 13.9 µM (inactive) | 16.2 µM (inactive) | 18.4 µM (inactive) | 20.2 µM (inactive) | 26.7 µM (inactive) | 31.2 µM (inactive) | 13.9 µM (inactive) | 18.8 µM (inactive) | 23.9 µM (inactive) | 20.2 µM (inactive) | 16.5 µM (inactive) | 21.2 µM (inactive) | 14.2 µM (inactive) | 18.7 µM (inactive) | 15.8 µM (inactive) | 16 µM (inactive)
13 | O=C(C1=C(C(=O)c2ccccc2)SC2(S1)C(C(=O)c1ccccc1)=C(C(=O)c1ccccc1)Sc1c2ssc1=O)c1ccccc1 | 33.5 µM (inactive) | 22.4 µM (inactive) | > 100 µM (inactive) | 30.4 µM (inactive) | 67.5 µM (inactive) | 26.7 µM (inactive) | > 100 µM (inactive) | 44.5 µM (inactive) | 11.2 µM (inactive) | 36.7 µM (inactive) | 82.4 µM (inactive) | 24.6 µM (inactive) | 30.5 µM (inactive) | 8.34 µM (inactive) | > 100 µM (inactive) | 36.7 µM (inactive) | 22.4 µM (inactive) | > 100 µM (inactive) | > 100 µM (inactive) | 29.8 µM (inactive)
14 | Cc1cc(C)c2c(O)cc(-c3cccc4ccccc34)nc2n1 | 0.615 µM (active) | 0.349 µM (active) | 2.13 µM (inactive) | 0.386 µM (active) | 2.58 µM (inactive) | 2.78 µM (inactive) | 0.41 µM (active) | 1.14 µM (inactive) | 0.26 µM (active) | 4.25 µM (inactive) | 0.403 µM (active) | 1.12 µM (inactive) | 0.867 µM (active) | 0.719 µM (active) | 0.628 µM (active) | 0.317 µM (active) | 3.09 µM (inactive) | 0.363 µM (active) | 0.361 µM (active) | 0.406 µM (active)
